Here are results for one compound from ChEMBL document CHEMBL4507291 (2021).

Data set [1] deals with Glutamate receptor ionotropic, kainate (Rattus norvegicus) (UniProt P22756+Q01812+P42260+P42264+Q63273). The data set is described as follows: Inhibition of Glutamate, Kainate at 10 µM in the Eurofins-Panlabs radioligand binding assay (Eurofins_assay_232700). To be noted: Compound concentration 10.0 uM.
Data set [2] has as its target T1, Muscarinic acetylcholine receptor M5 (Homo sapiens) (UniProt P08912).
T1 sequence (whole entry): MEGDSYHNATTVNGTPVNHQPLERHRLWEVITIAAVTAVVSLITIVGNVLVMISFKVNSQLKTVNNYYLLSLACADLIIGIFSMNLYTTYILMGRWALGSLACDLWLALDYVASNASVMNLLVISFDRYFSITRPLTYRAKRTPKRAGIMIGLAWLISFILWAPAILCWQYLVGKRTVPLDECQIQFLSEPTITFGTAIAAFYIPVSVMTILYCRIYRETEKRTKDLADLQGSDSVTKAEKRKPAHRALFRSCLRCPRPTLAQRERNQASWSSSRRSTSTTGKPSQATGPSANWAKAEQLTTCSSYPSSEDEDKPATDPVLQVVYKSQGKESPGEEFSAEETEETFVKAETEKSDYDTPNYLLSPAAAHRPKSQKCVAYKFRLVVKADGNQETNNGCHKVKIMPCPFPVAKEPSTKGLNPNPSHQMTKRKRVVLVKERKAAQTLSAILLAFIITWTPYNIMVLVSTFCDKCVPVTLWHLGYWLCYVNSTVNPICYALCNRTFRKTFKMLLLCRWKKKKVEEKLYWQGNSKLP
The data set is described as follows: Inhibition of Muscarinic M5 at 10 µM in the Eurofins-Panlabs radioligand binding assay (Eurofins_assay_253010). Details: ligand concentration 0.8 nM; call rule not given here. To be noted: Compound concentration 10.0 uM.

Data set [3] concerns Tyrosine-protein kinase ABL1 (Homo sapiens), P00519 [T315I]. The data set is described as follows: ABL1 T315I Kinase screen. As to conditions: Compound concentration 1.0 uM.
Data set [4] has as its target Calcium/calmodulin-dependent protein kinase type 1 (Homo sapiens) (UniProt Q14012). In words: CAMK1 (CaMK1) Kinase screen. To be noted: Compound concentration 1.0 uM.
For data set [5], the target named is Cyclin-dependent kinase 5/CDK5 activator 1 (Homo sapiens) (UniProt Q00535+Q15078). In words: CDK5/p25 Kinase screen. Format: protein-complex assay. To be noted: Compound concentration 1.0 uM.
Data set [6] concerns the target T2, Serine/threonine-protein kinase DCLK2 (Homo sapiens) (UniProt Q8N568).
T2 sequence (whole entry): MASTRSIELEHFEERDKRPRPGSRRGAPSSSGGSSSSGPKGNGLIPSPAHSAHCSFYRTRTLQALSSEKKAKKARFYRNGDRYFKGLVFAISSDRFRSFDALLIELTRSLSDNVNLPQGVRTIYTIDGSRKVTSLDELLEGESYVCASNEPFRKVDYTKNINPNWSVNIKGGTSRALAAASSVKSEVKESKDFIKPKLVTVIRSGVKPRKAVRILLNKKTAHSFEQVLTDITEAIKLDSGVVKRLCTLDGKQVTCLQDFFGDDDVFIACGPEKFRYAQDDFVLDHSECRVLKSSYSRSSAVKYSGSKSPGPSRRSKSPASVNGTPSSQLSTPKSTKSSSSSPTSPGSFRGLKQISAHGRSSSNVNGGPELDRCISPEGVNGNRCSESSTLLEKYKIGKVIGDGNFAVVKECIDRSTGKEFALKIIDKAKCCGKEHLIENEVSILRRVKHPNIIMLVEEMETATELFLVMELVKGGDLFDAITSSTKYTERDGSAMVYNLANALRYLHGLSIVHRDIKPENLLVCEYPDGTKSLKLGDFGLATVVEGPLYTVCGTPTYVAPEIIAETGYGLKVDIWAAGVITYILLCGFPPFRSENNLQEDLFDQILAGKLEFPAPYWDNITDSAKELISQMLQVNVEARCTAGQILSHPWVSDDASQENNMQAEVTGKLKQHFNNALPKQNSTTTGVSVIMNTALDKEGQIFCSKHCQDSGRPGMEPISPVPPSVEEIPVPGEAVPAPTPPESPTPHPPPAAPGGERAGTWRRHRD
In words: DCAMKL2 (DCK2) Kinase screen. To be noted: Compound concentration 1.0 uM.

Data set [7] concerns the target Dual specificity tyrosine-phosphorylation-regulated kinase 4 (Homo sapiens) (UniProt Q9NR20). In words: DYRK4 Kinase screen. To be noted: Compound concentration 1.0 uM.
Data set [8] deals with Tyrosine-protein kinase Fer (Homo sapiens) (UniProt P16591). In words: FER Kinase screen. To be noted: Compound concentration 1.0 uM.
Data set [9] deals with Tyrosine-protein kinase Fes/Fps (Homo sapiens) (UniProt P07332). The data set is described as follows: FES (FPS) Kinase screen. As to conditions: Compound concentration 1.0 uM.
Data set [10] concerns the target Tyrosine-protein kinase Lyn (Homo sapiens) (UniProt P07948). The data set is described as follows: LYN B Kinase screen. As to conditions: Compound concentration 1.0 uM.
Data set [11] concerns the target Dual specificity mitogen-activated protein kinase kinase 2 (Homo sapiens) (UniProt P36507). The data set is described as follows: MAP2K2 (MEK2) Kinase screen. As to conditions: Compound concentration 1.0 uM.
Data set [12] deals with Proto-oncogene tyrosine-protein kinase Src (Homo sapiens) (UniProt P12931). In words: SRC N1 Kinase screen. To be noted: Compound concentration 1.0 uM.
Data set [13] addresses Testis-specific serine/threonine-protein kinase 2 (Homo sapiens) (UniProt Q96PF2). The data set is described as follows: STK22B (TSSK2) Kinase screen. To be noted: Compound concentration 1.0 uM.
For data set [14], the target named is T3, Serine/threonine-protein kinase 3 (Homo sapiens) (UniProt Q13188).
T3 sequence (whole entry): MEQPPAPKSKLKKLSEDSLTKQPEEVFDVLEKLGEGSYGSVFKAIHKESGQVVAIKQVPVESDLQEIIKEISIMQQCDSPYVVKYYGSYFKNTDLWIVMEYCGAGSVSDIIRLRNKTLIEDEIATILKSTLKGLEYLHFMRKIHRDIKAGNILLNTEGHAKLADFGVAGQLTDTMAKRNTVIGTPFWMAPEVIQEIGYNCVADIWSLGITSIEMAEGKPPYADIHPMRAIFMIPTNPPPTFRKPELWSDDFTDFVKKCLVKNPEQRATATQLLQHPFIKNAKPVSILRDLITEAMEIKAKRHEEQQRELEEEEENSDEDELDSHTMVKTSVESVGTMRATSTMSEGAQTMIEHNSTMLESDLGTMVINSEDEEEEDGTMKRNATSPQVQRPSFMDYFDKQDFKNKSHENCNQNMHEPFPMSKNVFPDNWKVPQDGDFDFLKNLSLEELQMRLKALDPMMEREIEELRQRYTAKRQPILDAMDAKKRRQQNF
In words: STK3 (MST2) Kinase screen. To be noted: Compound concentration 1.0 uM.

The target of data set [15] is MAO-B (amine oxidase [flavin-containing] B) (Homo sapiens, UniProt P27338). In words: Inhibition of Monoamine Oxidase MAO-B at compound concentration of 10.0 uM in the Eurofins-Panlabs enzyme assay (Eurofins_assay_140120). Details: substrate with concentration 50 uM Kynuramine, incubation time 60 min, incubation temperature 37 C. As to conditions: recombinant human MAO-B expressed in insect Hi5 cells, probe kynuramine (50 uM), compound concentration 10 uM.

Data set [16] deals with Glucocorticoid receptor (Homo sapiens) (UniProt P04150). As to conditions: Compound concentration 10.0 uM.
Sequence of Glucocorticoid receptor (Homo sapiens) (P04150 whole entry): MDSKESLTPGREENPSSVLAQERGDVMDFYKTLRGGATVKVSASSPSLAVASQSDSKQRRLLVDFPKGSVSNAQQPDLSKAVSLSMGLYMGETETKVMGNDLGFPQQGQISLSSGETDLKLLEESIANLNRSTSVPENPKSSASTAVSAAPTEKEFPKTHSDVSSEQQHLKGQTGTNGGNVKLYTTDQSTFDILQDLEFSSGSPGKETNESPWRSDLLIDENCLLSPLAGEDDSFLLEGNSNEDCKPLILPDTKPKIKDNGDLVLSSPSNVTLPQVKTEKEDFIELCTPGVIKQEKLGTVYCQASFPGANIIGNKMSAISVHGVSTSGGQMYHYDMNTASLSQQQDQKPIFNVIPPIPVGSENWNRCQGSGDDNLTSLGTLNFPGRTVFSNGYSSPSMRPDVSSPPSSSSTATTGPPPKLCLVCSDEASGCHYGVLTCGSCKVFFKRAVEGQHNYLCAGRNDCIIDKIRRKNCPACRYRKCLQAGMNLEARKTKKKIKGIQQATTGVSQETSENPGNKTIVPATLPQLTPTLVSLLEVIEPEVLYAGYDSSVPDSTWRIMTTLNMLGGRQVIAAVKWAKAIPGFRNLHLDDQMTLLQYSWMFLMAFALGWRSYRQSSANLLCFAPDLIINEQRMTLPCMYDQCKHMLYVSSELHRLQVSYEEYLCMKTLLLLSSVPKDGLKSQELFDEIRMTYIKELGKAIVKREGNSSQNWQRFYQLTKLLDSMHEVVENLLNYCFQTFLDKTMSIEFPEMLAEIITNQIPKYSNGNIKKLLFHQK

Sequence of Tyrosine-protein kinase Fer (Homo sapiens) (P16591 whole entry, looked up): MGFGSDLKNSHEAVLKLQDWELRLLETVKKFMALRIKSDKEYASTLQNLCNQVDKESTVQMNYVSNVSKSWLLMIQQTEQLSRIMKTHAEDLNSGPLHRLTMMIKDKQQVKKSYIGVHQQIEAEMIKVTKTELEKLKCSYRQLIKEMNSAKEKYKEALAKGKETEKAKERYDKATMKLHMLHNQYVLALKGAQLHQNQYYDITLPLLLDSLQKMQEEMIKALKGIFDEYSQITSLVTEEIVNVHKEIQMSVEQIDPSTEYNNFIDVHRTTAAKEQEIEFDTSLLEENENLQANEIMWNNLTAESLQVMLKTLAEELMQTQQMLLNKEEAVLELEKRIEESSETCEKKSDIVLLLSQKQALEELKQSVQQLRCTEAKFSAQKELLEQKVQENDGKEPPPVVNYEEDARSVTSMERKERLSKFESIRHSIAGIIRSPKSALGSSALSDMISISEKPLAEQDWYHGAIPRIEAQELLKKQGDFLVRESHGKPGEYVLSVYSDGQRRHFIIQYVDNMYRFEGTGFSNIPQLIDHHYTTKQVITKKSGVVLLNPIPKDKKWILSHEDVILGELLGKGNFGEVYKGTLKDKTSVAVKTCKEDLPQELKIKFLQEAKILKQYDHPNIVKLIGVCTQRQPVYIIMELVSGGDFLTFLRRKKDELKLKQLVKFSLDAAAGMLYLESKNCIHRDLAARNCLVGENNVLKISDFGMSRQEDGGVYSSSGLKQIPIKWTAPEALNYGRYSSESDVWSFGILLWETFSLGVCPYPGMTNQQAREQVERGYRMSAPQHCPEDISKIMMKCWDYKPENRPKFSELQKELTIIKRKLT
Sequence of Proto-oncogene tyrosine-protein kinase Src (Homo sapiens) (P12931 2-536 limits assumed): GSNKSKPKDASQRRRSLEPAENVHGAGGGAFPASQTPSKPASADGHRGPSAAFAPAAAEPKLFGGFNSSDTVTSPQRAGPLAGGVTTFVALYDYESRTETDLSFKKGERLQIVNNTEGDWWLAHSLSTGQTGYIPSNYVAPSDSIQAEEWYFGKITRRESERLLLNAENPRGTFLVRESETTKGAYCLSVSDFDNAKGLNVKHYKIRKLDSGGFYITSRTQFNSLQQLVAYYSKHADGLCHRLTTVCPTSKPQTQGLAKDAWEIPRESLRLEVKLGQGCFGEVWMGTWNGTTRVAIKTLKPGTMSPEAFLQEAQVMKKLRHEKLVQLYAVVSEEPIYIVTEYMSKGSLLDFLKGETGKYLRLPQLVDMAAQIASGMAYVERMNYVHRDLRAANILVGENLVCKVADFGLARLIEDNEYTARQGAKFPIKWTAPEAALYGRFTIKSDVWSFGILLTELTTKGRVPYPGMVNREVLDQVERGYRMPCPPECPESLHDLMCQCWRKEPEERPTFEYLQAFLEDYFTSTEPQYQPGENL
Sequence of MAO-B (amine oxidase [flavin-containing] B) (P27338 whole entry): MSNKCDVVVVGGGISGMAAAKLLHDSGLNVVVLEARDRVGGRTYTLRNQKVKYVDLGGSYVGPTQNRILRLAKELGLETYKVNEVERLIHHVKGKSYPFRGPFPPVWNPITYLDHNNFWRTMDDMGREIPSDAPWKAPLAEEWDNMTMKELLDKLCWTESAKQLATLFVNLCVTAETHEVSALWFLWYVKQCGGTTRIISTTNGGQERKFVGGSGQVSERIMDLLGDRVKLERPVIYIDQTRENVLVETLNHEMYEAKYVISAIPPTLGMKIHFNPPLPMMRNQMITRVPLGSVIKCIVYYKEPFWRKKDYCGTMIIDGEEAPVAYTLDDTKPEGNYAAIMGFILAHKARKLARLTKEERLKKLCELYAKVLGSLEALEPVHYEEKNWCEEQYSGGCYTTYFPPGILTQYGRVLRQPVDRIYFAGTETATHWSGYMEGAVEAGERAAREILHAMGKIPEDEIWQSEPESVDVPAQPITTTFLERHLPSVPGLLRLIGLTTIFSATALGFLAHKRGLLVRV
Sequence of Testis-specific serine/threonine-protein kinase 2 (Homo sapiens) (Q96PF2 whole entry): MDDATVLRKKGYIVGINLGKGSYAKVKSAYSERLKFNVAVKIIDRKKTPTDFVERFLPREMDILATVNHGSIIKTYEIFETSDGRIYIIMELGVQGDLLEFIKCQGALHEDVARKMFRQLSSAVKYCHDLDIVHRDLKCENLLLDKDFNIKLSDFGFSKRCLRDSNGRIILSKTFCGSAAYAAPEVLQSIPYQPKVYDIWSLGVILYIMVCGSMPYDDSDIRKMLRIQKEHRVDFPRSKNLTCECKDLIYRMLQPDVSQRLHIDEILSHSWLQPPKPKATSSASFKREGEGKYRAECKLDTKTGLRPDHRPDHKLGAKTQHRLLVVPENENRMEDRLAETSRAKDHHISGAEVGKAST
Sequence of Tyrosine-protein kinase Fes/Fps (Homo sapiens) (P07332 whole entry): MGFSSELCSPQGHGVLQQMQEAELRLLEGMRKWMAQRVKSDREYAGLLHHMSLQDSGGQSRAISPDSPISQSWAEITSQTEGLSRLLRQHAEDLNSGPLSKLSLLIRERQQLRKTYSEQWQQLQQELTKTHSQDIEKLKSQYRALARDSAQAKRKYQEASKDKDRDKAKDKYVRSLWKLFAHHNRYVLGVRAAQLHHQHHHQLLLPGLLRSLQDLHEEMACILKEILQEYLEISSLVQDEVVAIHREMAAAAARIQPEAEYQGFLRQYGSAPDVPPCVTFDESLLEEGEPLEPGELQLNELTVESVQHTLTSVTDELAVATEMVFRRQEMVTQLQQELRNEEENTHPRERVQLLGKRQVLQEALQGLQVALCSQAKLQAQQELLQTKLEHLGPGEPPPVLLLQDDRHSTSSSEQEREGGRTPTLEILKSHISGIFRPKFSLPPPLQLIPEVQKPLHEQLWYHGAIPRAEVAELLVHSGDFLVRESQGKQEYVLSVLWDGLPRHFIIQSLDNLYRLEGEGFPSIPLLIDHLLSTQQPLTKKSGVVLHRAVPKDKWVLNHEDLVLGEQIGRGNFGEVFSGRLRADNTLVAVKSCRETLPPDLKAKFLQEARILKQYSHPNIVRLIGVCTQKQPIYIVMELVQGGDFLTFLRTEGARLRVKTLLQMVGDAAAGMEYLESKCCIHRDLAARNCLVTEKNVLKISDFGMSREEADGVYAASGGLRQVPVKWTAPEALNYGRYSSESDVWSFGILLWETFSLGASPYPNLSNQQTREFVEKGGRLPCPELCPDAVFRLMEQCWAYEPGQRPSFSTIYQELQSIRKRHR
Sequence of Tyrosine-protein kinase Lyn (Homo sapiens) (P07948 2-512 limits assumed): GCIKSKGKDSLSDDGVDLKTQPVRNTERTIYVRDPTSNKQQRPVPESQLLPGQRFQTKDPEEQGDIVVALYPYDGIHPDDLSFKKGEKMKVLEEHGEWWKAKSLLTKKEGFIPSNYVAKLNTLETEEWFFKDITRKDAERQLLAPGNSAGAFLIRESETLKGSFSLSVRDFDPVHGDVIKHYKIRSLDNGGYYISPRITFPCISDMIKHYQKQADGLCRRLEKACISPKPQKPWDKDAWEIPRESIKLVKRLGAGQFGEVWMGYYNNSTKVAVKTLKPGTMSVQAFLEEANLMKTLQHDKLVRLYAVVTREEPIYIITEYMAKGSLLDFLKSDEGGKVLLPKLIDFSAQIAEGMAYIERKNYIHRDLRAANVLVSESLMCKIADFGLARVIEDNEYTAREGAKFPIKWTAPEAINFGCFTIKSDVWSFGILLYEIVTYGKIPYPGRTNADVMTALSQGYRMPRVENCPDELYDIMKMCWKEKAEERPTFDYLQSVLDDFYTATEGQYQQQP
Sequence of Calcium/calmodulin-dependent protein kinase type 1 (Homo sapiens) (Q14012 whole entry, looked up): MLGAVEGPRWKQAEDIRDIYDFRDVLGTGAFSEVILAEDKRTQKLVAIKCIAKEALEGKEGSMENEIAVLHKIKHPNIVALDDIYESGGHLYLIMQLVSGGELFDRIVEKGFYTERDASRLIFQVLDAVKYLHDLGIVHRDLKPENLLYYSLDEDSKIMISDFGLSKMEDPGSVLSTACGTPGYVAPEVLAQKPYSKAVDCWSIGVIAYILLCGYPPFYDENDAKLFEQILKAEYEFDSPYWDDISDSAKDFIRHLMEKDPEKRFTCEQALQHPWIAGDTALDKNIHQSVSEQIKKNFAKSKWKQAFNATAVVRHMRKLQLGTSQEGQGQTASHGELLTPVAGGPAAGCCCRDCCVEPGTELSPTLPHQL

For the compound `C[C@@H]1CN(c2cc(-c3n[nH]c4ccc(OC5(C)CC5)cc34)ncn2)C[C@H](C)O1` [MLi-2], the inhibition – broadly, the relative decrease from the control value, in per cent – was 12% in data set [1]; -8% in [2]; 9.34% in data set [3]; -4.05% in data set [4]; -2.71% in data set [5]; 5.61% in data set [6]. For the same compound, the inhibition in data set [7] was 1.74%; in [8] it was 26.7%; in data set [9], 6.03%; in data set [10], 3.94%; in [11] it was 20.3%; in data set [12], 5.78%. The inhibition in data set [13] is 10.2%; in data set [14], 11.9%; in [16], 19%. Further, in data set [15], the inhibition at 60 min, 10 µM is 28% (not active).
